Values quoted from earlier work in patent US20060147566A1, “Use of physiologically active fatty acids” (priority 2004, published 2006).

Tested on: pruritus
Conditions: known from clinical studies; acyl salicylate prior art

For `CC(=O)Oc1ccccc1C(=O)O` [aspirin], the “significance for the treatment of pruritus” value is given as “about 50%”.
